Source: ChEMBL document CHEMBL3507680, “University of Dundee, Gates Library screen for HepG2 cell viability”

Assay: Human HepG2 cell viability assay in 384 well format
Format: toxicity, cell-based
Parameters: dose 125 nL, time 70.5 hour; cytotoxicity at 70.5 h: concentration not given beside the values
Details: HepG2 cells, read-out: Inhibition

Row | Structure (SMILES) | cytotoxicity at 70.5 h
1 | c1cnc2c(CN3CCCCC3c3ccncn3)cnn2c1 (stereo not drawn) | -8.22%
2 | Cc1ccc(CC2COCCN(S(C)(=O)=O)C2)nc1 (stereo not drawn) | 12.3%
3 | CN1CCN(c2ncccn2)CC(C(=O)N(C)C)C1 (stereo not drawn) | -5.5%
4 | CN(C)C(=O)C1CN(c2ccncn2)CCN(C2CCOCC2)C1 (stereo not drawn) | 12.4%
5 | CNc1ncccc1CN1CCN(C(C)=O)CC(C(N)=O)C1 (stereo not drawn) | -4.74%
6 | COCC(=O)N1CCC(C)(c2cc(O)[nH]n2)CC1 | 0.0821%
7 | CC(C)C[C@H](N)COc1cccc(F)c1Oc1ccc(Cl)cc1 | 26.2%
8 | Cc1ccc(Oc2c(F)cccc2OC[C@@H](N)CC(C)C)cc1 | 23.8%
9 | O=C(Nc1cc(CCC2CCN(CCO)CC2)ccn1)c1ccccn1 | 45.9%
10 | CNC(=O)c1sc2ccccc2c1CC1CCCN1Cc1cnc(C)s1 (stereo not drawn) | -10.5%
11 | CCCC(=O)N1CCCC(C(=O)c2cnn(-c3ccc(F)cc3)c2N)C1 (stereo not drawn) | -4.03%
12 | Cc1cc(C)nc(N2CCOC(c3cc(CCO)[nH]n3)C2)n1 (stereo not drawn) | -8.46%
13 | Cc1nc(NCc2nonc2C)cc(C(C)Cn2nc(C)c(C)c2C)n1 (stereo not drawn) | -7.72%
14 | Cc1nc(NCc2ccccc2)cc(C(C)Cn2nc(C)c(C)c2C)n1 (stereo not drawn) | 3.51%
15 | CCCn1nc(C)c(C(=O)N(C)[C@@H]2CC[C@@H](N3CCCC3)[C@@H]2O)c1C | -5.14%
16 | NC(=O)C1(c2cnccn2)CCCN1C(=O)Cc1ccsc1 (stereo not drawn) | -5.34%
17 | Cc1nc2ccc(Cl)cn2c1CN1CCN(S(=O)(=O)N2CCCC2)CC1 | -4.72%
18 | CN(C)c1cc(C2CCN(C(=O)c3cnn(C)c3)CC2)ccn1 | -4.9%
19 | c1cnc(C2CCCN(Cc3ccsc3)C2)cn1 (stereo not drawn) | -6.09%
20 | CC(=O)NCc1cncc(C2CCCN2C2CCOCC2)n1 (stereo not drawn) | -5.7%
21 | CC(=O)N1CCCC(c2nnc3n2CCN(C(=O)C2CCCCC2)C3)C1 (stereo not drawn) | -8.2%
22 | CCn1c(C)nc2cc(NC(=O)C3CN(C(C)=O)C3)ccc21 | -5.1%
23 | Cc1ncc(-c2ccncc2)c(C2CCN(C(=O)c3ccno3)CC2)n1 | -7.69%
24 | CS(=O)(=O)c1cncnc1C1CCCN(C(=O)Nc2ccccc2F)C1 (stereo not drawn) | -11.6%

Row | Structure (SMILES) | cytotoxicity at 70.5 h
25 | Nc1nc(N)c2c(n1)OC1(CCN(Cc3nccs3)C1)C2 (stereo not drawn) | -6.73%
26 | Nc1nc(N)c2c(n1)OC1(COCCN(Cc3nccs3)C1)C2 (stereo not drawn) | -10.4%
27 | O=C(O)c1ccc(=O)n(CC(c2ccc(F)cc2)N2CCCCCC2)c1 (stereo not drawn) | -7.77%
28 | Cc1oc2c(c1C(=O)N1CC[C@H](O)[C@]3(CCCO3)C1)CCCC2 | -5.7%
29 | O=C(c1cncs1)N1CCOC(c2cc(CCO)[nH]n2)C1 (stereo not drawn) | -7.42%
30 | CNC(=O)C1(CCCc2cnccn2)CCN1CCc1ccccc1 (stereo not drawn) | -2.58%
31 | Cc1cc(C(=O)N(C)C)nc(C2(C)CCCN2c2ccccc2)n1 (stereo not drawn) | -2.68%
32 | CN(C)C(=O)C1(c2cnccn2)CCCN1C(=O)Cc1ccsc1 (stereo not drawn) | -5.5%
33 | Cc1nc(NCCO)cc(C(C)Cn2nc(C)c(C)c2C)n1 (stereo not drawn) | -3.69%
34 | CN(C)C(=O)C1(c2cnccn2)CCCN1C(=O)Cc1ccccc1 (stereo not drawn) | -5.41%
35 | Cn1nccc1C(=O)N1CCC(c2nnsc2S(C)(=O)=O)CC1 | -5.74%
36 | O=C(CN1CCC2(CC1)NC(=O)c1cc(Br)ccc1N2)NC1CC1 | -1.52%
37 | O=C1NC2(CCCN(C(=O)CCn3cncn3)C2)Oc2ccccc21 (stereo not drawn) | -4.04%
38 | COc1ccc(C(C)NCc2scnc2C)cc1Cn1cccn1 (stereo not drawn) | 0.409%
39 | O=C(c1cc(Cl)c[nH]1)N(CCCO)Cc1cccnc1 | -8.59%
40 | Cc1cc(CC(=O)N2CCc3cc(Br)sc3C2)n[nH]1 | 12.5%
41 | CC(Cn1cccn1)NCc1cccc(C#N)c1 (stereo not drawn) | -3.1%
42 | COCC(=O)Nc1ccnc(OCCN(C)C)c1 | 4.63%
43 | CCOc1ccc(N(CCC#N)C(=O)c2ccnc(SC)c2)cc1 | 9.66%
44 | O=S(=O)(Nc1ccc(N2CCOCC2)cc1)c1cccc(F)c1 | -1.37%
45 | NC(=O)CN(CC(N)=O)Cc1cccc(Oc2ccccc2)c1 | 7.82%
46 | Cc1csc(N2CCCN(C(=O)c3nccnc3N)CC2)n1 | -0.698%
47 | COc1cc(CNc2cnn(C(C)(C)C)c(=O)c2Cl)ccn1 | 1.57%
48 | CCC(=O)N(CC(N)=O)Cc1cccc(Oc2ccccc2)c1 | 0.0156%

Row | Structure (SMILES) | cytotoxicity at 70.5 h
49 | COC(C)C(=O)N(CC(N)=O)Cc1cccc(Oc2ccccc2)c1 (stereo not drawn) | -2.39%
50 | Cc1ccc(C(C)NC(=O)N2CCN(C(=O)CC(F)(F)F)CC2)o1 (stereo not drawn) | -3.77%
51 | Cc1cnn(CC2CCN(CC(O)c3ccccc3)CC2)c1 (stereo not drawn) | 13.9%
52 | Cc1cnn(CC2CCN(CC(O)COc3ccccc3)CC2)c1 (stereo not drawn) | 4.78%
53 | Cc1cnn(CC2CCN(CC(O)c3ccc(F)cc3)CC2)c1 (stereo not drawn) | -0.648%
54 | Cc1cnn(CC2CCN(CC(O)c3ccccc3Cl)CC2)c1 (stereo not drawn) | -3.1%
55 | CCS(=O)(=O)NCCNc1c(C#N)cnc2c(F)cc(F)cc12 | -0.0012%
56 | CN(C)C(=O)c1cccc(NC(=O)Cc2cc(F)ccc2F)n1 | 1.76%
57 | N#CCCCS(=O)(=O)NC(=O)c1ccccc1F | -0.732%
58 | CCc1ccccc1C(=O)NS(=O)(=O)CCCC#N | 10.5%
59 | CCC(CC)(CNC(C)=O)NC(C)c1ccccc1 (stereo not drawn) | 3%
60 | CCC(CC)(CN)NC(C)c1ccccc1 (stereo not drawn) | -7.08%
61 | CCOc1cccnc1C(=O)N1CCCN(c2nc(C)cs2)CC1 | -3.42%
62 | COc1cc(CNC(C)c2nnc3n2CCC3)cc(OC)c1 (stereo not drawn) | -9.55%
63 | CCCN1CCN(C(=O)c2cccnc2)CC1 | -14.6%
64 | CC(C)C(NC(=O)c1nc(N2CCOCC2)ncc1Cl)c1cccs1 (stereo not drawn) | -9.67%
65 | CC(C)C(NC(=O)c1ccc(N2CCOCC2)nc1)c1cccs1 (stereo not drawn) | -9.4%
66 | O=C(Nc1c(N2CCCC2)cccc1N1CCCC1)c1cnccn1 | -14.4%
67 | O=C(CCn1cncn1)NCC1CCS(=O)(=O)C1 (stereo not drawn) | -12.4%
68 | CC(Sc1nncn1C)C(=O)NCCCOc1ccc(F)cc1 (stereo not drawn) | -22.5%
69 | N#Cc1ccccc1OCCN1CCCCC1C(=O)N1CCOCC1 (stereo not drawn) | 7.77%
70 | O=C1OCCN1CCSc1nnnn1CC(F)(F)F | -5.39%
71 | CCCNC(=O)C[S+]([O-])Cc1csc(C2CCCCC2)n1 (stereo not drawn) | -10.9%
72 | CC(C)c1nc2n(n1)CC(Nc1ncnc3c1CCC3)CC2 (stereo not drawn) | -13.9%

Row | Structure (SMILES) | cytotoxicity at 70.5 h
73 | CCN(CC)c1ncc(Cl)c(C(=O)NC2CCc3nccn3C2)n1 (stereo not drawn) | -13.5%
74 | Cn1c(CO)cnc1SC(C(N)=O)c1ccccc1 (stereo not drawn) | -15.2%
75 | Cn1c(CO)cnc1SC(C(=O)NC1CC1)c1ccccc1 (stereo not drawn) | -8.64%
76 | O=C(NCc1ccc(CN2CCCC2)cc1)NC1(CO)CCCC1 | 2.2%
77 | CCN(CC)c1ncc(Cl)c(C(=O)NC2CC2)n1 | -0.0542%
78 | CCC(Sc1ncc(CO)n1C)c1ccccc1 (stereo not drawn) | -10%
79 | COc1ccc(N(C)C(=O)C2CN(C)CCO2)cc1Cl (stereo not drawn) | 8.7%
80 | CN1CCOC(C(=O)N(C)c2ccc3c(c2)CCO3)C1 (stereo not drawn) | -18.1%
81 | CN(C)c1cccc(C(=O)N2CCCc3cc(OC(F)(F)F)ccc32)c1 | -9.8%
82 | CCCOc1ccc(CN)c(OC(F)F)c1 | -3.13%
83 | COc1ccnc(N2CCC(OCCN3CCCCC3)C2)n1 (stereo not drawn) | -2.49%
84 | Cc1nnc(CN2CCCCC2c2nc(-c3ccccc3)no2)s1 (stereo not drawn) | -8.42%
85 | CN(C)c1ccc(C(=O)N2CCCc3cc(OC(F)(F)F)ccc32)cn1 | -5.84%
86 | CCCN1CCCN(C(=O)c2ccc(Oc3cccnc3)cc2)CC1 | -8.42%
87 | O=C(CCS(=O)(=O)C1CCCC1)N1CCCC(n2ccnc2)C1 (stereo not drawn) | 6.79%
88 | CC(C)(C)C(O)CN1CCN(Cc2cccc(C#N)c2)CC1 (stereo not drawn) | 14.7%
89 | CC(C)S(=O)(=O)CC(=O)N1CCCC(n2ccnc2)C1 (stereo not drawn) | -0.47%
90 | Cn1cc(C(=O)N2CCN(c3ccc(F)cc3)CC2)ccc1=O | 2.77%
91 | CC(C)(C)C(O)CN1CCN(Cc2ccc(C#N)cc2)CC1 (stereo not drawn) | -6.98%
92 | CCCc1cc(C(=O)NC(c2ccccc2)c2n[nH]c(C)n2)[nH]n1 (stereo not drawn) | -7.51%
93 | CCC(=O)N1CCN(C(=O)NCc2c(C)cc(C)cc2C)CC1 | -11.6%
94 | NC(=O)Nc1cc(F)ccc1SCC(F)F | -8.84%
95 | CCC(CO)NC(=O)Nc1cc(F)ccc1SCC(F)F (stereo not drawn) | -11.1%
96 | CN(c1cccnc1N1CCCC1)S(=O)(=O)c1cccnc1 | 3.33%

Row | Structure (SMILES) | cytotoxicity at 70.5 h
97 | Cc1cnn(-c2ccc(S(=O)(=O)N(C)CC(C)(CO)CO)cc2F)c1 | 17.1%
98 | COCCNC(=O)CCNc1ccc(Cl)cn1 | -6.53%
99 | COc1cccc([S+]([O-])CC(=O)NCc2cc(F)cc(F)c2)c1 (stereo not drawn) | -1.69%
100 | c1cnc2nc(N3CCc4c(ncn4C4CC4)C3)ccc2n1 | -6.09%
101 | CN(CCN1CCN(c2ccccc2)CC1)C(=O)Nc1ccncc1 | -3.63%
102 | Cc1nc(CN2CCCN(CC(=O)N(C)CCC#N)CC2)no1 | -9.21%
103 | C[S+]([O-])c1ccc(CNc2ccc(F)cc2OC(F)F)cc1 (stereo not drawn) | -0.988%
104 | OC1(CNCc2ccc(F)c(C(F)(F)F)c2)CCSCC1 | -7.48%
105 | CCCC(C)N(C)Cc1nnc(-c2ccc(Br)s2)o1 (stereo not drawn) | -4.09%
106 | Cc1cnn(C2CCCN(C(=O)CN(C)c3cnccn3)C2)c1 (stereo not drawn) | -2.8%
107 | CCOCCC(=O)NC(Cc1ccc(C)cc1)c1ccccn1 (stereo not drawn) | 0.116%
108 | CCCn1nc(C(=O)NCCc2nnc3n2CCC3)ccc1=O | 1.09%
109 | CC(C1CC1)N(C)Cc1nnc(-c2ccc(Br)s2)o1 (stereo not drawn) | -2.75%
110 | CN(Cc1ccc(Cl)s1)C(=O)NCCC(=O)N1CCCCCC1 | -4.9%
111 | Cc1ccc(S(=O)(=O)Nc2cccnc2O)cc1C | -0.331%
112 | C=C(C)CN(CC)C(=O)c1cc(Cl)ccc1NS(C)(=O)=O | -0.344%
113 | O=C1NCCCCC1NC(=O)C1(c2cccc(C(F)(F)F)c2)CC1 (stereo not drawn) | 0.452%
114 | O=C(OCCNc1ncccn1)c1ccc(Br)s1 | -0.709%
115 | COc1ccc(CCNC(=O)C2CCOC2)c(Cl)c1 (stereo not drawn) | -2.75%
116 | Cc1cc(N2CCN(Cc3cn(C)nc3C)CC2)cc(C2CCNC2)n1 (stereo not drawn) | -5.44%
117 | COc1cc2c(cc1CNC(Cc1cccs1)c1nccs1)OCCO2 (stereo not drawn) | -3.19%
118 | c1coc(CN2CCC(c3ccc4c(c3)OCO4)CC2)c1 | -3.77%
